Assays:
[1] = tested on: PD-L1 suppressed human T-cells; test: Activation of T-Cell Suppressed by PD-L1 (IFN-g readout); format: cell-based; conditions: human T cells co-cultured with Hep3B cells transfected with human PD-L1; dose dependent; Keytruda positive control
Source text: To measure the cellular activity of the compound, a protocol of Activation of T-Cell Suppressed by PD-L1 was used. In this protocol, human Hep3B cells were stably transfected with human PD-L1. The human T cells containing PD-1 were inactivated by co-culturing with these PD-L1 transfected cells. Then anti-PD-1 antibody Keytruda® was selected as the reference to profile the compound for its activation of PD-L1 suppressed human T-cells.

[2] = tested on: 4T1 tumor cells; test: Anti-tumor efficacy in the subcutaneous 4T1 murine breast cancer model in BALB/c mice; format: in vivo; conditions: 4T1, BALB/c mice; for TGI / Tumor Volume: PO, BID, 20 days
Protocol: Materials required for the experiment: Antibody: mouse PD-1 antibody, Product specifications: 7.09 mg/mL (50 mg/mL), Lot No.: 695318A1 purchased from BioXcell, storage at 4 °C. Experiment animal: 60 BALB/C mice, female, 6˜8 weeks old, 20˜23 g, purchased from Shanghai Lingchang Biotechnology Co, Ltd. Formulation material: castor oil (Cremophor RH40), CAS No.: 61788-85-0, Lot No.: 29761847G0, purchased from Shanghai Xietai Chemical Co. Ltd.; β-cyclodextrin (SBE-β-CD), CAS No.:128446-35-5, Lot No.: 20180110, purchased from Shanghai Shaoyuan Chemical Co. Ltd.; RPMI-1640 culture medium, Art. No.: 1869036, Lot No.:11875-093, purchased from Gibco Co. Ltd.; PBS, Art. No.: SH30256.01, Lot No.: AB10141338, purchased from HyClone Co. Ltd.; Fetal bovine serum: CAS No.: 10099-141, Lot No.: 1966174C, purchased from Gibco Co. Ltd.
Cell preparation and implantation: 4T1 cells (CRL-2539™) were cultured with RPMI 1640 supplemented with 10% heat inactivated FBS at 37° C. in 5% CO2 incubator. Cells were passaged 3 times a week. Cells were harvested, counted and passaged, inoculated when around 70% confluent.
Tumor cell inoculation and group administration: The 50 uL cell suspension containing 1×10^5 4T1 tumor cells (cells suspended in base RPMI-1640 medium) was inoculated into the fourth fat pad of the left abdomen of mice. On the second day after inoculation, according to the order of tumor inoculation, stratified randomization was used to group and start the administration on the day of grouping.
Preparation of test substances: Preparation of formulation: 490 mL of sterile water was added into the volumetric flask with magnetic stirring to have a vortex. 100 g of castor oil (Cremophor RH40) was added with a spoon slowly into the vortex and the solution was kept stirring. 200 g of β-cyclodextrin (SBE-β-CD) was added while the solution was kept stirring until the solution was clear, and the total volume was set to 1000 mL, which contained 10% (w/v) Cremophor RH40+20% (w/v) an aqueous solution of SBE-β-CD.
Preparation of Compound Suspension: 178.88 mg compound was weighed and 14.817 mL 10% (w/v) Cremophor RH40+20% (w/v) SBE-β-CD aqueous solution were added. The suspension solution with a concentration of 12.0 mg/mL was obtained by fully mixing with magnetic stirring. 7.0 mL of the compound suspension solution with concentration of 12.0 mg/mL was pipetted and 7.0 mL aqueous formulation solution was added. The suspension solution with a concentration of 6.0 mg/mL was obtained by fully mixing with magnetic stirring, 7.0 mL of the compound suspension solution with concentration of 6.0 mg/mL was pipetted and 7.0 mL aqueous formulation solution was added. The suspension solution with a concentration of 3.0 mg/mL was obtained by fully mixing with magnetic stirring. 7.0 mL of the compound suspension solution with concentration of 3.0 mg/mL was pipetted and 7.0 mL aqueous formulation solution was added. The suspension solution with a concentration of 1.5 mg/mL was obtained by fully mixing with magnetic stirring. The compound suspension solution was prepared once a day.
Preparation of mPD-1 Antibody: 0.339 mL mPD-L1 antibody (7.09 mg/mL) original solution was pipetted and 2.061 mL PBS solution was added. The solution was fully mixed and the final concentration of 1 mg/mL solution was obtained.
Procedure: The mice in the vehicle group were weighed and recorded in the electronic balance according to their numbers. The mice in the vehicle group were given prepared formulation solution twice a day by oral administration according to their body weight with a capacity of 0.1 mL/10 g. Each mouse spent about 20 seconds and 10 mice in each group shared for about 5 minutes.
The mice in the antibody (10 mg/kg) group were weighed and recorded in the electronic balance according to their numbers. The mice in the antibody group were given prepared antibody solution twice a week by IP administration according to their body weight with a capacity of 0.1 ml/10 g. […]

Question: With Cc1c(/C=C/c2cc(CN[C@@](C)(CO)C(=O)O)ccc2C(F)(F)F)cccc1-c1ccccc1 [Compound] as the molecule, how does the “activation of PD-L1 suppressed human T cell, indicated by increase of cytokine IFN-g” value [1] read?
Answer: Its value is “effectively restored the activation”.

Question: And the TGI ([2]; 15 mg/kg)?
Answer: The TGI was 19.96%.

Question: And the “Tumor Volume” value ([2]; 15 mg/kg)?
Answer: The value was 689.03 ± 43.97 mm^3.

Question: And the TGI ([2]; 30 mg/kg)?
Answer: The TGI was 33.34%.

Question: What about the “Tumor Volume” value ([2]; 30 mg/kg) of the same molecule?
Answer: Its value is 573.9 ± 43.18 mm^3.

Question: And the TGI ([2]; 60 mg/kg)?
Answer: The TGI was 36.32%.

Question: And the “Tumor Volume” value ([2]; 60 mg/kg)?
Answer: The value was 548.24 ± 31.39 mm^3.

Question: What about the TGI ([2]; 120 mg/kg) of the same molecule?
Answer: The TGI was 41.55%.

Question: What about the “Tumor Volume” value ([2]; 120 mg/kg) of the same molecule?
Answer: The value was 503.16 ± 32.93 mm^3.

Question: What about the minimum effective dose ([2]; p<0.05) of the same molecule?
Answer: The minimum effective dose was 30 mpk.

Reference: US20220313626A1, “SMALL MOLECULE INHIBITORS FOR TREATING CANCER IN A SUBJECT HAVING TUMORS WITH HIGH INTERSTITIAL PRESSURE” (GUANGZHOU MAXINOVEL PHARMACEUTICALS CO., LTD., priority 2019, published 2022)
